Patent US20230337677A1, “ARYL AND PYRIDYL AMIDE PESTICIDES AND COMPOSITIONS THEREOF” (University of Florida Research Foundation, Incorporated, priority 2019, published 2023)

What was measured:
[1] = system: Aedes aegypti mosquitoes, insecticide-susceptible Orlando strain; format: in vivo; conditions: for 1 h % Repellency, 100 μg/cm^2: screened at 100 μg/cm^2, strain not given; for knockdown in 1 hr repellency test (XXkd = number of insects incapacitated out of 16 females): 100 μg/cm^2; for 1 h Repellency EC50, μg/cm^2: (OR); for vapor repellency / mortality, statement in words (Example 8): structure-activity analysis of Table 2
Procedure: The tubes as shown were held horizontally on the bench.
For assessing behavioral repellency (FIG. 1), Aedes aegypti mosquitoes were used from the insecticide-susceptible Orlando strain and the pyrethroid-resistant Puerto Rico strain. Sixteen female mosquitoes were transferred to a glass tube (12.5 cm long, 2.5 cm outer diameter) with the ends covered with netting. Each compound was dissolved in 1 mL of acetone and serial dilutions ranging from 30-0.01 μg/ml were made. Circular filter papers (5 cm^2) were saturated with 50 μL of each concentration and allowed 10 min for solvent evaporation. The filter papers were then placed in clear conical polypropylene caps and fixed to the end of the glass tubes. The netting prevented mosquito contact with the filter paper. The tubes were then aligned with a mark denoting the midline and the proportion of mosquitoes on the chemically treated side was scored for up to 60 min. At the end of the test, the tube was placed in a cage and the ability of the mosquitoes to fly out of the tube was assessed for 30 min. […] This post-test evaluated whether any non-responding mosquitoes (not repelled) resulted from intoxication or disorientation from the test chemical. For assessment of lethality, insects were held for 24 hr under constant exposure in glass tubes having treated filter papers.
Compounds were first screened at 100 μg/cm^2 for repellency and 24 h mortality.

[2] = system: Aedes aegypti mosquitoes, insecticide-susceptible Orlando strain; experiment: whole plant or invertebrate; conditions: 24 h, read-out: 24 h % Mortality, 100 μg/cm^2
[3] = system: Aedes aegypti strain Orlando (sensitive); experiment: Topical toxicity (24 hour mortality), Ae. aegypti Orlando; format: in vivo; conditions: topical application, 24 h mortality, female adults, susceptible Orlando strain
Procedure: (§1) The Aedes aegypti strains Orlando (sensitive) as well as the Puerto Rico (PR, resistant to permethrin) were used. The Anopheles gambiae (G3 sensitive strain, as well as Akron kdr (Akdr) strain, resistant to pyrethroids were also assessed. The larvae were provided by the USDA, Gainesville Fl, and raised in a pan with tap water maintained at 28° C. Larvae were fed a ground liver and yeast mixture, and pupae were placed in emergence cages. Adults were held at 28° C. and provided with cotton balls soaked in 10% sugar water for rearing and for all bioassays.
(§2) Female adults from 3 to 6 days were used for the experiments. The drug was dissolved in ethanol and then applied with a micro-applicator on the thorax, between the legs: 200 nL of drug per female mosquito, with different concentrations of the drug; 10 mosquitos were treated together per concentration per replicate, and put together in a small container with free access to sweet water. Mortality, i.e. no visible movement, was assessed 24 hours after treatment. Every compound was assessed on at least 3 different cohorts of mosquitoes, and the LD50 values and slopes were determined with Probit analysis, corrected with Abbott's formula.

[4] = system: Anopheles gambiae G3 sensitive strain; experiment: Topical toxicity (24 hour mortality), An. gambiae G3; format: in vivo; conditions: topical application, 24 h mortality, female adults, susceptible strain G3
Procedure: as §1, §2

[5] = system: Aedes aegypti mosquitoes, insecticide-susceptible Orlando strain; conditions: for 24 h LC50, μg/cm^2: LC50 (OR)
[6] = system: Anopheles gambiae Akron kdr (Akdr) strain, resistant to pyrethroids; experiment: Topical toxicity (24 hour mortality), An. gambiae Akdr; format: in vivo; conditions: topical application, 24 h mortality, female adults, pyrethroid-resistant Akdr strain
Procedure: as §1, §2

| SMILES | 1 h % Repellency, 100 μg/cm^2 [1] [%] | mortality at 100 µg/cm2 [2] [%] | further results |
| --- | --- | --- | --- |
| O=C(CCSC(F)(F)F)Nc1ccc(F)cc1 [GMR198] | 8 | 0 |  |
| C=CCCC(=O)Nc1ccccc1C(F)(F)F [MTFI-5-5D] | 56 | 6 |  |
| CN(C(=O)C(F)(F)C(F)(F)OC(F)(F)F)c1cc(Cl)nc(Cl)c1 [GMR106] |  |  | knockdown in 1 hr repellency test (XXkd = number of insects incapacitated out of 16 females) [1]: 2; Ae. aegypti OR LD50 [3]: 846 ng/mg; An. gambiae G3 LD50 [4]: >1000 ng/mg; 24 h % Mortality, 100 μg/cm^2 ([5]; in vivo): 100% |
| O=C(Nc1ccnc(Br)c1)C(F)(F)C(F)(F)C(F)(F)C(F)(F)C(F)(F)F [GMR069] | −12 | 13 | Ae. aegypti OR LD50 [3]: 2261 ng/mg; An. gambiae AKDR LD50 [6]: 3425 ng/mg |
| O=C(Nc1ccc(F)cc1)C(F)(F)Sc1ccc(F)cc1 [GMR196] | 18 | 0 |  |
| O=C(CCl)Nc1ccccc1C(F)(F)F [MTFI-2-1A] | 94 | 100 | 1 h Repellency EC50, μg/cm^2 [1]: 14 μg/cm^2; 24 h LC50, μg/cm^2 [5]: 14 μg/cm^2 |
| CCC(=O)N(C(=O)CC)c1cccc(OC(F)(F)F)c1 [GMR161] | 74 | 72 | 1 h Repellency EC50, μg/cm^2 [1]: 36 μg/cm^2; 24 h LC50, μg/cm^2 [5]: 52 μg/cm^2 |
| CC(SC(F)(F)F)C(=O)Nc1ccc(F)cc1 (stereo not drawn) [GMR197] | 30 | 0 |  |
| CN(C(=O)C(F)(F)C(F)(F)OC(F)(F)F)c1cc(F)c(F)c(F)c1 [GMR114] | 0 | 6 |  |
| N#CC(F)(F)C(=O)Nc1cc(F)c(F)c(F)c1 [GMR102] | 74 | 22 | 1 h Repellency EC50, μg/cm^2 [1]: 28 μg/cm^2; vapor repellency / mortality, statement in words (Example 8) [1]: moderate repellency and toxicity; Ae. aegypti OR LD50 [3]: 2164 ng/mg; An. gambiae G3 LD50 [4]: >100 ng/mg; An. gambiae AKDR LD50 [6]: >100 ng/mg |
| CC1(C)[C@H](C=C(Cl)Cl)[C@H]1C(=O)Nc1cc(F)c(F)c(F)c1 [GMR148] | 12 | 6 |  |
| O=C(NCc1cc(Cl)nc(Cl)c1)C(F)(F)C(F)(F)C(F)(F)F [GMR107] | 50 | 0 | Ae. aegypti OR LD50 [3]: 2173 ng/mg |
| CC(=O)Nc1c(Cl)cncc1Cl [GMR130] | 34 | 81 |  |
| O=C(Nc1c(Cl)cc(C(F)(F)F)cc1Cl)C(F)(F)F [GMR149] | 44 | 81 | Ae. aegypti OR LD50 [3]: 251 ng/mg |
| O=C(Nc1cccc(C(F)(F)F)c1)c1c(F)c(F)c(F)c(F)c1F [MT2018-0316-01] | 24 | 0 | vapor repellency / mortality, statement in words (Example 8) [1]: poor results |
| CC(C)(C)OC(=O)N(C(=O)C(F)(F)C(F)(F)F)c1c(Cl)cc(C(F)(F)F)cc1Cl [GMR150] |  | 100 | knockdown in 1 hr repellency test (XXkd = number of insects incapacitated out of 16 females) [1]: 11; Ae. aegypti OR LD50 [3]: 629 ng/mg; 24 h LC50, μg/cm^2 [5]: 12 μg/cm^2 |
| C=CC(=O)Nc1ccccc1NC(=O)C=C [GMR024] | 0 | 3 | vapor repellency / mortality, statement in words (Example 8) [1]: reduced repellency and poor toxicity |
| O=C(Cc1c(F)c(F)c(F)c(F)c1F)n1nnc2ccccc21 [MT2018-0314-02] | 6 | 0 |  |
| O=C(Nc1ccccc1C(F)(F)F)C(F)(F)C(F)(F)F [MTFI-2-1B] | 38 | 0 |  |
| O=C(CBr)Nc1ccccc1C(F)(F)F [MTFI-5-5E] | 62 | 60 |  |
| CC(=O)Nc1cc(F)c(F)c(F)c1 [GMR142] | 50 | 66 |  |
| CC(C)(C)OC(=O)N(C(=O)C(F)(F)F)c1c(Cl)cc(C(F)(F)F)cc1Cl [GMR151] | 32 | 0 | Ae. aegypti OR LD50 [3]: >5000 ng/mg |

| SMILES | 1 h % Repellency, 100 μg/cm^2 [1] [%] | mortality at 100 µg/cm2 [2] [%] | further results |
| --- | --- | --- | --- |
| CCCCC(=O)Nc1ccccc1CCCC [MTFI-5-8A] | 38 | 6 |  |
| CC(C(=O)Nc1cc(F)c(F)c(F)c1)(C(F)(F)F)C(F)(F)F [GMR139] | 24 | 100 | 1 h Repellency EC50, μg/cm^2 [1]: 6.9 μg/cm^2; vapor repellency / mortality, statement in words (Example 8) [1]: reduced repellency; 24 h LC50, μg/cm^2 [5]: 16.6 μg/cm^2 |
| O=C(c1c(F)c(F)c(F)c(F)c1F)n1nnc2ccccc21 [MT2018-0314-01] | 32 | 0 |  |
| CN(C(=O)C(F)(F)C(F)(F)C(F)(F)F)c1cc(F)c(F)c(F)c1 [GMR113] | 0 | 6 |  |
| O=C(Cc1c(F)c(F)c(F)c(F)c1F)Nc1cccc(C(F)(F)F)c1 [MT2018-0316-02] | 6 | 0 |  |
| O=S(=O)(Nc1c(Cl)cc(C(F)(F)F)cc1Cl)C(F)(F)F [MTFI-5-10A] | 0 | 0 |  |
| C#C[C@@H]1[C@@H](C(=O)Nc2cc(F)cc(F)c2)C1(C)C [GMR180] | −24 | 14.3 |  |
| O=C(OCc1c(F)c(F)cc(F)c1F)C(F)(F)C(F)(F)C(F)(F)F [GMR090] | −12 | 9 | Ae. aegypti OR LD50 [3]: >1000 ng/mg; An. gambiae G3 LD50 [4]: >100 ng/mg; An. gambiae AKDR LD50 [6]: >100 ng/mg |
| CC(=O)Nc1ccccc1C(F)(F)F [MTFI-3-2A] | 80 | 22 |  |
| CCCCC(=O)Nc1ccccc1OC(F)(F)F [MTFI-5-8B] | 96 | 13 | 1 h Repellency EC50, μg/cm^2 [1]: 11 μg/cm^2 |
| Cc1ccccc1C(=O)Nc1cc(C(F)(F)F)cc(C(F)(F)F)c1 [MTFI-3-1E] | 6 | 7 | vapor repellency / mortality, statement in words (Example 8) [1]: poor results |
| O/N=C(\Nc1cc(Cl)nc(Cl)c1)C(F)(F)C(F)(F)C(F)(F)F [GMR104] | 12 | 0 | Ae. aegypti OR LD50 [3]: 393 ng/mg; An. gambiae G3 LD50 [4]: >100 ng/mg |
| O=C(Nc1cc(C(F)(F)F)ccn1)C(F)(F)C(F)(F)C(F)(F)F [GMR085] | 70 | 13 | 1 h Repellency EC50, μg/cm^2 [1]: 49 μg/cm^2; Ae. aegypti OR LD50 [3]: >6000 ng/mg; An. gambiae G3 LD50 [4]: >100 ng/mg; An. gambiae AKDR LD50 [6]: >50 ng/mg |
| O=C(Nc1cc(Cl)cc(Cl)c1)C(F)(F)C(F)(F)OC(F)(F)F [GMR099] | 74 | 81 | Ae. aegypti OR LD50 [3]: 3279 ng/mg; An. gambiae G3 LD50 [4]: >1000 ng/mg; An. gambiae AKDR LD50 [6]: >1000 ng/mg |
| O=C(Nc1cc(F)c(F)c(F)c1F)C(F)(F)C(F)(F)C(F)(F)F [MTFI-5-4E] | 56 | 6 |  |
| O=C(CC1CC1)Nc1cccc(C(F)(F)F)c1 [MTFI-5-6C] | 50 | 0 |  |
| CCCC(=O)Nc1c(Cl)cncc1Cl [GMR132] | 4 | 28 |  |
| O=C(Nc1cc(F)c(F)c(F)c1F)C(F)F [MTFI-5-4A] | 68 | 0 |  |
| CCC(=O)Nc1cccc(OC(F)(F)F)c1 [GMR160] | 42 | 16 | 1 h Repellency EC50, μg/cm^2 [1]: 123 μg/cm^2 |
| CC(=O)N(C(C)=O)c1cccc(OC(F)(F)F)c1 [GMR159] | −26 | 19 | An. gambiae G3 LD50 [4]: >1000 ng/mg; An. gambiae AKDR LD50 [6]: ~1000 ng/mg |
| CCCCCCCCCCC(=O)Nc1ccccc1C(F)(F)F [MTFI-2-1F] | 6 | 0 |  |
